{"source": "ChEMBL document CHEMBL4385664", "about": "“Targeting TRAIL” (Bioorg Med Chem Lett, 2019)", "test": "Activation of TRAIL receptor in human T98G cells assessed as reduction in cel viability by Cell-titer-Glo luminescent cell viability assay", "format": "cell-based", "data": [{"compound": "Cc1csc(N2C(=N)S/C(=C\\c3ccc(-c4ccc5c(c4)C(=O)NC5=O)o3)C2=O)n1", "values": [{"measurement": "IC50", "result": "> 30", "unit": "µM"}]}, {"compound": "C=CCN1C(=N)S/C(=C\\c2ccc(-c3ccc4c(c3)C(=O)NC4=O)o2)C1=O", "values": [{"measurement": "IC50", "result": "> 30", "unit": "µM"}]}, {"compound": "N=C1S/C(=C\\c2ccc(-c3ccc4c(c3)C(=O)NC4=O)o2)C(=O)N1c1ccc(Cl)cc1", "values": [{"measurement": "IC50", "result": 25, "unit": "µM"}]}, {"compound": "N=C1S/C(=C\\c2ccc(-c3ccc4c(c3)C(=O)NC4=O)o2)C(=O)N1c1ccccn1", "values": [{"measurement": "IC50", "result": "> 30", "unit": "µM"}]}, {"compound": "N=C1S/C(=C\\c2ccc(-c3ccc4c(c3)C(=O)NC4=O)o2)C(=O)N1c1ccc(C(F)(F)F)cc1", "values": [{"measurement": "IC50", "result": "> 30", "unit": "µM"}]}, {"compound": "Cc1ccc(N2C(=N)S/C(=C\\c3ccc(-c4ccc5c(c4)C(=O)NC5=O)o3)C2=O)cc1", "values": [{"measurement": "IC50", "result": "> 30", "unit": "µM"}]}, {"compound": "COc1ccc(N2C(=N)S/C(=C\\c3ccc(-c4cccnc4)o3)C2=O)cc1", "values": [{"measurement": "IC50", "result": 25, "unit": "µM"}]}, {"compound": "COc1ccc(N2C(=N)S/C(=C\\c3ccc(-c4ccc5c(c4)C(=O)N(Cc4ccccc4)C5=O)o3)C2=O)cc1", "values": [{"measurement": "IC50", "result": "> 30", "unit": "µM"}]}, {"compound": "COc1ccc(N2C(=N)S/C(=C\\c3ccc(-c4ccc5c(c4)C(=O)NC5=O)o3)C2=O)cc1", "values": [{"measurement": "IC50", "result": "> 30", "unit": "µM"}]}, {"compound": "COc1cccc(N2C(=N)S/C(=C\\c3ccc(-c4ccc5c(c4)C(=O)NC5=O)o3)C2=O)c1", "values": [{"measurement": "IC50", "result": 10, "unit": "µM"}]}, {"compound": "N=C1S/C(=C\\c2ccc(-c3ccc4c(c3)C(=O)NC4=O)o2)C(=O)N1c1ccc(Br)cc1", "values": [{"measurement": "IC50", "result": 2, "unit": "µM"}]}, {"compound": "COc1ccc(/C=C2\\SC(=N)N(c3ccc(OC)cc3)C2=O)cc1", "values": [{"measurement": "IC50", "result": "> 30", "unit": "µM"}]}, {"compound": "N=C1S/C(=C\\c2ccc(-c3ccc4c(c3)C(=O)NC4=O)o2)C(=O)N1c1ncc[nH]1", "values": [{"measurement": "IC50", "result": 20, "unit": "µM"}]}, {"compound": "COc1ccc(N2C(=N)S/C(=C\\c3ccc(-c4ccccc4)o3)C2=O)cc1", "values": [{"measurement": "IC50", "result": "> 30", "unit": "µM"}]}, {"compound": "COc1ccc(N2C(=N)S/C(=C\\c3ccc(-c4cncnc4)o3)C2=O)cc1", "values": [{"measurement": "IC50", "result": "> 30", "unit": "µM"}]}, {"compound": "COc1ccc(N2C(=N)S/C(=C\\c3ccc(-c4ccc(OC)c(F)c4)o3)C2=O)cc1", "values": [{"measurement": "IC50", "result": 20, "unit": "µM"}]}, {"compound": "CN1C(=N)S/C(=C\\c2ccc(-c3ccc4c(c3)C(=O)NC4=O)o2)C1=O", "values": [{"measurement": "IC50", "result": "> 30", "unit": "µM"}]}, {"compound": "COc1ccc(N2C(=N)S/C(=C\\c3ccc(-c4ccc5c(c4)C(=O)N(C)C5=O)o3)C2=O)cc1", "values": [{"measurement": "IC50", "result": "> 30", "unit": "µM"}]}, {"compound": "COc1ccc(N2C(=O)S/C(=C\\c3ccc(-c4ccc5c(c4)C(=O)NC5=O)o3)C2=O)cc1", "values": [{"measurement": "IC50", "result": "> 30", "unit": "µM"}]}, {"compound": "N=C1S/C(=C\\c2ccc(-c3ccc4c(c3)C(=O)NC4=O)o2)C(=O)N1c1ccc(F)cc1", "values": [{"measurement": "IC50", "result": 20, "unit": "µM"}]}, {"compound": "N=C1S/C(=C\\c2ccc(-c3ccc4c(c3)C(=O)NC4=O)o2)C(=O)N1c1ccccc1", "values": [{"measurement": "IC50", "result": "> 30", "unit": "µM"}]}, {"compound": "CN(C)c1ccc(N2C(=N)S/C(=C\\c3ccc(-c4ccc5c(c4)C(=O)NC5=O)o3)C2=O)cc1", "values": [{"measurement": "IC50", "result": "> 30", "unit": "µM"}]}, {"compound": "COc1ccc(N2C(=N)S/C(=C\\c3ccc(-c4ccncc4)o3)C2=O)cc1", "values": [{"measurement": "IC50", "result": 20, "unit": "µM"}]}, {"compound": "COc1ccc(N2C(=N)S/C(=C\\c3ccc(-c4ccc5c(c4)C(=O)NC5=O)s3)C2=O)cc1", "values": [{"measurement": "IC50", "result": 10, "unit": "µM"}]}]}
